# Laboratory results from the supplement of paper PMC11061612.
# What was measured:
# Assay in all cases: Bliss excess, mean over the matrix (fraction); higher = more synergy
# [1] = system: NCI-H1355 (Lung Adenocarcinoma)
# Summary of the method: (§1)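 After 24 hours at 37°C and 5% CO2 in 1536-well plates, cells in DMEM/F12 or RPMI plus 10% FBS received two-drug dose matrices for 72 hours. Viability came from CellTiter-Glo 2.0 luminescence and was scaled as inhibition, anchored at 0 by vehicle wells and at 1 by blank wells. Combination Emax is taken as the second-highest inhibition in the matrix, and Bliss excess as the observed combination effect less EA + EB − EA·EB, with EA and EB the single-agent effects.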
# [2] = system: HCC1500 (Breast Carcinoma)
# Summary of the method: as §1
# [3] = system: Mo-T (Other Blood Carcinomas)
# Summary of the method: as §1
# [4] = system: SNU-387 (Hepatocellular Carcinoma)
# Summary of the method: as §1
# [5] = system: A4-Fuk (B-Lymphoblastic Leukemia)
# Summary of the method: as §1
# [6] = system: SKN (Other Solid Carcinomas)
# Summary of the method: as §1
# [7] = system: NCI-H1092 (Small Cell Lung Carcinoma)
# Summary of the method: as §1
# [8] = system: ML-2 (Acute Myeloid Leukemia)
# Summary of the method: as §1
# [9] = system: KMRC-1 (Kidney Carcinoma)
# Summary of the method: as §1
# [10] = system: G-401 (Other Solid Carcinomas)
# Summary of the method: as §1
# [11] = system: SK-LU-1 (Lung Adenocarcinoma)
# Summary of the method: as §1
# Hey (Ovarian Carcinoma) = system: Hey (Ovarian Carcinoma)
# Summary of the method: as §1
# [12] = system: MOLT-4 (T-Lymphoblastic Leukemia)
# Summary of the method: as §1
# COLO-679 (Melanoma) = system: COLO-679 (Melanoma)
# Summary of the method: as §1
# [13] = system: NCI-H1993 (Lung Adenocarcinoma)
# Summary of the method: as §1
# [14] = system: HCC1937 (Breast Carcinoma)
# Summary of the method: as §1
# [15] = system: COLO-668 (Small Cell Lung Carcinoma)
# Summary of the method: as §1
# [16] = system: MV-4-11 (Acute Myeloid Leukemia)
# Summary of the method: as §1
# [17] = system: KGN (Other Solid Carcinomas)
# Summary of the method: as §1
# [18] = system: EJM (Plasma Cell Myeloma)
# Summary of the method: as §1
SMILES,Bliss excess [1],Bliss excess [2],Bliss excess [3],Bliss excess [4],Bliss excess [5],Bliss excess [6],Bliss excess [7],Bliss excess [8],Bliss excess [9],Bliss excess [10],Bliss excess [11],Bliss excess (Hey (Ovarian Carcinoma)),Bliss excess [12],Bliss excess (COLO-679 (Melanoma)),Bliss excess [13],Bliss excess [14],Bliss excess [15],Bliss excess [16],Bliss excess [17],Bliss excess [18]
"CN(C)CCCOc1ccc(-c2ccc3ncc4c(c3c2)n(C2CCOCC2)c(=O)n4C)cn1 [AZD0156] + C=CCn1c(=O)c2cnc(Nc3ccc(N4CCN(C)CC4)cc3)nc2n1-c1cccc(C(C)(C)O)n1 [AZD1775] (first compound max 1 µM, partner max 1 µM)",-0.0472,0.0408,-0.0599,-0.054,-0.0274,-0.0548,-0.0351,-0.014,-0.0216,-0.0734,-0.0264,-0.0242,0.0118,-0.0433,-0.0699,-0.0734,-0.039,-0.0306,-0.0028,-0.0266
"CN(C)CCCOc1ccc(-c2ccc3ncc4c(c3c2)n(C2CCOCC2)c(=O)n4C)cn1 [AZD0156] + CCN(CCO)CCCOc1ccc2c(Nc3cc(CC(=O)Nc4cccc(F)c4)[nH]n3)ncnc2c1 [AZD2811] (first compound max 1 µM, 7x7, partner max 1 µM)",-0.0599,-0.0563,-0.0898,-0.0569,0.0911,-0.0358,-0.0102,-0.0594,-0.0251,-0.0279,-0.0518,0.0051,0.0107,-0.0093,-0.0335,-0.0387,-0.0175,-0.0383,-0.0306,0.0008
"CN(C)CCCOc1ccc(-c2ccc3ncc4c(c3c2)n(C2CCOCC2)c(=O)n4C)cn1 [AZD0156] + C[C@@H]1COCCN1C2=NC(=NC(=C2)C3(CC3)[S@](=N)(=O)C)C4=C5C=CNC5=NC=C4 [AZD6738] (first compound max 1 µM, 7x7, partner max 10 µM)",-0.0234,-0.0112,-0.0382,0.0187,-0.0079,-0.0069,-0.0427,-0.0248,-0.0496,-0.0017,0.0073,-0.019,0.0033,0.0164,-0.0329,-0.0386,-0.017,-0.06,-0.0172,0.0266
"CN(C)CCCOc1ccc(-c2ccc3ncc4c(c3c2)n(C2CCOCC2)c(=O)n4C)cn1 [AZD0156] + O=C(c1cc(Cc2n[nH]c(=O)c3ccccc23)ccc1F)N1CCN(C(=O)C2CC2)CC1 [Olaparib] (first compound max 3 µM, partner max 3 µM)",0.0176,0.0055,-0.046,0.0072,0.0383,0.0023,0.0028,0.117,-0.0316,0.0269,-0.017,0.106,0.123,-0.0013,-0.0191,0.0316,-0.0077,,0.156,0.0719
"C=CCn1c(=O)c2cnc(Nc3ccc(N4CCN(C)CC4)cc3)nc2n1-c1cccc(C(C)(C)O)n1 [AZD1775] + C1CN(CCC1(C(=O)N[C@@H](CCO)C2=CC=C(C=C2)Cl)N)C3=NC=NC4=C3C=CN4 [Capivasertib] (first compound max 3 µM, partner max 3 µM)",0.0046,-0.0462,-0.05,-0.0435,-0.0977,-0.0375,-0.0497,-0.0148,-0.0762,-0.0241,0.0164,-0.0475,0.0536,-0.0625,-0.0096,-0.0385,-0.0726,,-0.0195,-0.0041
"CN(CCO)CC[C@H](CSc1ccccc1)Nc1ccc(S(=O)(=O)NC(=O)c2ccc(N3CCC([C@@H](O)c4ccccc4-c4ccc(Cl)cc4)CC3)cc2)cc1S(=O)(=O)C(F)(F)F [AZD4320] + C=CCn1c(=O)c2cnc(Nc3ccc(N4CCN(C)CC4)cc3)nc2n1-c1cccc(C(C)(C)O)n1 [AZD1775] (first compound max 1 µM, partner max 1 µM)",0.0162,0.11,0.0529,0.0102,-0.0107,0.0666,0.0527,-0.0228,0.0036,-0.0058,-0.038,-0.053,0.0674,-0.0078,0.0951,0.0878,0.0801,,-0.0387,0.0256
"CS(=O)(=O)CCNCc1ccc(-c2ccc3ncnc(Nc4ccc(OCc5cccc(F)c5)c(Cl)c4)c3c2)o1 [Lapatinib] + NC1(c2ccc(-c3nc4ccn5c(=O)[nH]nc5c4cc3-c3ccccc3)cc2)CCC1 [MK-2206] (first compound max 10 µM, 7x7, partner max 10 µM)",0.0319,0.0415,0.0719,0.0033,0.0825,-0.0645,0.0182,0.0017,0.0098,,-0.0239,,0.0866,-0.031,-0.0147,-0.0343,-0.0393,0.0371,0.0078,
